Measured values taken from article PMC5686178, “Antimicrobial peptides in frog poisons constitute a molecular toxin delivery system against predators” (Nature Communications, 2017).
Where a SMILES comes first, the peptide text is derived from it. Where no end group is shown, it is not given here. [ ]: non-standard residue; d: D form. sY = N[C@@H](Cc1ccc(OS(=O)(=O)O)cc1)C(=O)O; pGlu = O=C1CC[C@@H](C(=O)O)N1

How the values were obtained:
Caco-2 monolayers [1] = assay: Transepithelial toxin passage across Caco-2 monolayers (ELISA); conditions: 60 min
Caco-2 monolayers [2] = assay: Scanning electron microscopy of Caco-2 monolayers; type: cell-based, Human; conditions: fixation 5 min after administration
Description: Caco-2 cells were seeded on glass coverslips that were coated with rat tail collagen 1 (Sigma-Aldrich) the day before. The effect of four treatments (100 µM CPF, 100 µM caerulein, 100 µM CPF + caerulein, and a negative control) on differentiated Caco-2 monolayers was visualized. Chemical fixation was performed in 12-well culture plates 5 min after peptide administration (700 µl of solution in all treatments). For fixation, plate wells were filled with 1 ml 2,5% glutaraldehyde in 0.05 M sodium cacodylate buffer (pH 7.4; 37 °C) for 20 min, and subsequently washed twice with the same buffer. Postfixation was performed with 1% osmium tetroxide for 30 min, followed by three rinses with double-distilled water. Dehydration was carried out using a graded hexylene glycol series: 30; 50; 70; and 90%, taking 15 min for each step. Cells were rinsed three times for 10 min with 100% hexylene glycol, and then two more times for 10 min with 100% ethanol. Critical-point drying of coverslips was done using a Balzers union CPD020. Dried coverslips were mounted on carbon-coated stubs with double-sided conductive tape. Gold coating happened with a Jeol 1200JFC fine coater, after which coverslips were examined with a Jeol JSM-840 scanning electron microscope operating at 12 kV.

other vertebrates = conditions: intravenous, ref [9],[21],[22], cited from earlier work
[3] = ref [8],[23]; cited from earlier work
Excerpt: As the main model for our study, we used a peptide pair composed of the systemic toxin caerulein, and the AMP caerulein precursor fragment-3 (CPF), both of which are key constituents of the skin secretion of the frog Xenopus laevis [18]–[20] (Fig. 1b). Caerulein is a potent ligand of cholecystokinin receptors expressed in the vertebrate intestine, pancreas, and brain[9], and at sufficiently high concentrations, may induce nausea, hypotension, intestinal cramps, vomiting, and diarrhea[9],[21],[22]. Even in the intestine, the target receptors are only accessible by means of epithelial absorption ...

EpiOral 3D tissues = assay: Transepithelial toxin passage across EpiOral multilayered oral epithelial model (ELISA); type: in vitro ADME; conditions: 8-11 stacked cell layers, 60 min, n = 8, vs caerulein alone
[4] = Caco-2 monolayer, apical to basolateral, 20 nmol caerulein + 20 nmol CPF (100 µM both) apical, ELISA, n = 9

CSCC[C@H](NC(=O)[C@H](Cc1c[nH]c2ccccc12)NC(=O)CNC(=O)[C@@H](NC(=O)[C@H](Cc1ccc(OS(=O)(=O)O)cc1)NC(=O)[C@H](CC(=O)O)NC(=O)[C@H](CCC(N)=O)NC(=O)[C@@H]1CCC(=O)N1)[C@@H](C)O)C(=O)N[C@@H](CC(=O)O)C(=O)N[C@@H](Cc1ccccc1)C(N)=O [caerulein] ([pGlu]QD[sY]TGWMDF-NH2)
Transepithelial passage of caerulein, % of applied dose at basolateral side (Caco-2 monolayers [1]; Caco-2 monolayer on collagen-coated transwell 0.4 µm, apical to basolateral, caerulein alone 100 µM (20 nmol) apical, apical 200 µL / basolateral 1000 µL, ELISA, n = 9): 0.3 – 1% | Transepithelial passage of caerulein, % of applied dose at basolateral side, CPF co-administered (Caco-2 monolayers [1]; [4]): 2.3–6.8% | Transepithelial passage of caerulein, amount at basolateral side, CPF co-administered (Caco-2 monolayers [1]; [4]): 0.45 to 1.36 nmol | Transepithelial passage of caerulein, amount at basolateral side (Caco-2 monolayers [1]; Caco-2 monolayer, apical to basolateral, caerulein alone 100 µM (20 nmol) apical, ELISA, n = 9): 0.06 to 0.20 nmol | Damage to Caco-2 monolayers by SEM, toxin alone (Caco-2 monolayers [2]; 100 µM caerulein): does not damage Caco-2 monolayers | Intravenously injected dose that caused severe sickness, molar (other vertebrates; converted from 1 μg/kg BW): 0.74 pmol/g BW | Intravenously injected dose that caused severe sickness (other vertebrates): 1 μg/kg BW | Half-life in the bloodstream [3]: up to 45 min

GFGSFLGKALKAALKIGANALGGSPQQ [CPF, caerulein precursor fragment-3]
Increase in rate of transepithelial passage of caerulein by co-administered CPF (Caco-2 monolayers [1]; Caco-2 monolayer, 100 µM both, on average, vs caerulein alone): near sevenfold increase | Damage to Caco-2 monolayers by SEM, CPF present (Caco-2 monolayers [2]; 100 µM CPF + caerulein): abundant intercellular ruptures in the monolayer | Increase in caerulein passage by co-administered CPF, oral multilayer model (EpiOral 3D tissues): nearly fivefold increase

GIGASILSAGKSALKGLAKGLAEHFAN-NH2 [BLP, bombinin-like peptide 1]
Enhancement of transepithelial passage of bombesin by co-administered BLP (Caco-2 monolayers [1]; Caco-2 monolayer, 100 µM both apical, ELISA, n = 9, vs toxin alone): ~ 4.5 times
